According to patent US9381238B2 (priority 2010, dated 2016):

Columns and labels:
[1] = test system: H3N2 A/Moscow/10/99 virus; experiment: Cytopathic effects induced by influenza virus on A549 cell layer (photon microscopy); assay type: cell-based, H3N2 A/Moscow/10/99 virus in human A549 cells; conditions: A549, 10 μM, MOI 2×10^−3, from 24 hpi onward, molecule added 14 h before infection and retained (FIG. 1)
Description: (§1) For all the following examples, the experiments were carried out at a temperature of 37° C. The culture medium used is DMEM (Ref 41966, Gibco), supplemented with trypsin (1 ug/mL, Sigma) during the infections.
A549 cells (ATCC, American Type Culture Collection CCL185) are cells derived from a lung carcinoma. […] Several ex-vivo studies on lung tissues from infected patients have shown that epithelial cells of this type probably constitute the primary influenza virus infection site (Nicholls et al. Nat. Med. 2007 February; 13(2):147-9, van Riel et al. Science. 2006 Apr. 21; 312(5772):399). These cells are therefore considered to be relevant for studying influenza viruses and are, consequently, very widely used in the field of fundamental research on influenza viruses.
The observation and monitoring of the cytopathic effects induced by the virus over time generally allow a first evaluation of the degree of infection of the cell layer. The cytopathic effect induced by the virus is characterized in particular by fusion of the infected cells with one another, forming multinucleated cell structures (syncytia). By photon microscopy, observation of the amount and of the scale of these structures on the cell layer makes it possible to obtain an estimation of the degree of infection.

[2] = test system: H3N2 A/Moscow/10/99 virus; experiment: Infectious titer (TCID50/ml) in supernatant of infected A549 cells; assay type: cell-based, H3N2 A/Moscow/10/99 virus in human A549 cells; conditions: A549, from 24 hpi onward, presence vs absence of Nutlin-3 (FIG. 2A)
[3] = test system: H3N2 A/Moscow/10/99 virus; experiment: Copies of viral genome M/ml in supernatant of infected A549 cells by real-time RT-qPCR; assay type: cell-based, H3N2 A/Moscow/10/99 virus in human A549 cells; conditions: for times more copies of genome in supernatant than control without Nutlin-3: A549, 10 hpi (single viral cycle); for times more copies M/ml of supernatant than the control: MOI 10^−3, pretreatment
Description: (§2) FIGS. 2 to 7 show the observed amounts of copies of viral genome M/ml in the culture supernatant (M for the segment of viral genome encoding the M1 and M2 viral proteins), with various culture conditions and after various infection times.
as §1
In order to gain a more precise idea, the quantification of the number of copies of viral genome M/ml of supernatant was then carried out, by extraction of the viral RNAs and quantification by real-time RT-qPCR (FIG. 2B). At 48 hpi, 6.66×10^6 copies M/ml were measured in the absence of Nutlin-3, compared with 2.44×10^8 copies M/ml in the presence of Nutlin-3, i.e. a gain of more than 36-fold in terms of viral production. The same calculation performed at 72 hpi indicates a gain of 88-fold in favor of the conditions where Nutlin-3 is used.
The A549 cells were infected with various amounts of virus (MOI 0.01, 0.1 and 1), in the presence or absence of Nutlin-3, and the amount of copies M/ml of supernatant was measured by RT-qPCR after a single viral cycle (10 hpi) or after several viral cycles (28 hpi). The cells were brought into contact with Nutlin-3, either 14 h before the infection (T=−14 h), or immediately at the time of infection (T=0 h) (FIG. 3). In any event, the Nutlin-3 is added in one go.
A similar experiment was carried out with an MOI of 10^−3, while modifying the time at which the pretreatment is carried out (14 h compared with 10 h before infection). At 48 hpi, Nutlin-3 makes it possible to obtain 1.5, 5.7 and 40 times more copies M/ml of supernatant than the control for respective concentrations of 0.1, 1 and 10 μM (FIG. 4).
This molecule was used at concentrations of 2 and 20 μM with an MOI of 10^−3.

[4] = test system: H3N2 A/Moscow/10/99 virus; experiment: Copies of viral genome M/ml in supernatant of infected MDCK cells by RT-qPCR; assay type: cell-based, H3N2 A/Moscow/10/99 virus in MDCK cells (dog); conditions: MOI 10^−3, 0.1, 1 and 10 μM
Description: as §2, §1
The MDCK line (ATCC No. CCL-34) is the most widely used line for the laboratory production of influenza virus. It is a cell line which is also registered and with which batches of vaccine have been produced by Novartis and Solvay.
At 24 hpi, up to 19 times more copies of genome M/ml are obtained in the presence of Nutlin-3 compared with the control.

Structure (SMILES) | cytopathic effect compared with infected cells without Nutlin-3 [1] | gain in infectious titer (TCID50/ml) in the supernatant [2] | times more copies of genome in supernatant than control without Nutlin-3 ([3]; treatment started at T=0, MOI 0.1 (FIG. 3)) [times] | times more copies of genome in supernatant than control without Nutlin-3 ([3]; treatment started at T=0, MOI 1 (FIG. 3)) [times] | gain in viral production (copies M/ml) vs absence of Nutlin-3 ([3]; A549, 48 hpi (FIG. 2B)) | times more copies M/ml of supernatant than the control ([3]; A549, 48 hpi, 0.1 μM (FIG. 4)) [times] | times more copies M/ml of supernatant than the control ([3]; A549, 48 hpi, 1 μM (FIG. 4)) [times] | times more copies M/ml of supernatant than the control ([3]; A549, 48 hpi, 10 μM (FIG. 4)) [times] | copies of viral genome M/ml of supernatant ([3]; A549, 48 hpi, in the presence of Nutlin-3 (FIG. 2B)) | gain in viral production (copies M/ml) vs absence of Nutlin-3 ([3]; A549, 72 hpi (FIG. 2B)) [fold] | times more copies of genome M/ml compared with the control ([4]; 24 hpi, pretreatment 14 h before infection (FIG. 5)) | effect on viral titer (copies of genome M/ml) in cell supernatants ([4]; pretreatment 14 h before infection, after several consecutive viral cycles (FIG. 5)) | times more copies of genome M in the supernatant compared with the control ([3]; A549, 48 hpi, MOI 10^−3, 2 μM (FIG. 6)) | times more copies of genome M in the supernatant compared with the control ([3]; A549, 72 hpi, MOI 10^−3, 20 μM (FIG. 6))
COc1ccc(C2=NC(c3ccc(Cl)cc3)C(c3ccc(Cl)cc3)N2C(=O)N2CCNC(=O)C2)c(OC(C)C)c1 (racemic) [Nutlin-3, (±)-4-[4,5-bis(4-chlorophenyl)-2-(2-isopropoxy-4-methoxy-phenyl)-4,5-dihydroimidazole-1-carbonyl]piperazin-2-one] | more marked cytopathic effect | gain of one log 10 difference | 11 | 50 | more than 36 fold | 1.5 | 5.7 | 40 | 2.44×10^8 copies M/ml | 88 | up to 19 times | greatly increases the viral titer | – | –
Cc1ccc2ccc(C(Nc3ccccc3)c3ccccc3)c(O)c2n1 (centres unmarked) [NSC66811, 2-methyl-7-[phenyl(phenylamino)methyl]-8-quinolinol] | – | – | – | – | – | – | – | – | – | – | – | – | approximately 6 times | approximately 5 times
